In patent US20200024299A1, “CRYSTALLINE FORMS OF A BILE ACID DERIVATIVE” (Intercept Pharmaceuticals, Inc., priority 2016, published 2020):
“Also recorded” adds a separate entry of the source.

Columns and labels:
Format in all cases: physicochemical
[1] = Storage stability at controlled temperature / relative humidity
[2] = Gravimetric Vapor Sorption (GVS), hygroscopicity
Experimental: Sorption isotherms were obtained using a SMS DVS Intrinsic moisture sorption analyzer, controlled by DVS Intrinsic Control software v1.0.1.2 (or v 1.0.1.3). The sample temperature was maintained at 25° C. by the instrument controls. The humidity was controlled by mixing streams of dry and wet nitrogen, with a total flow rate of 200 mL/min. The relative humidity was measured by a calibrated Rotronic probe (dynamic range of 1.0-100% RH), located near the sample. The weight change, (mass relaxation) of the sample as a function of % RH was constantly monitored by the microbalance (accuracy ±0.005 mg).
Typically, 5-20 mg of sample was placed in a tared mesh stainless steel basket under ambient conditions. The sample was loaded and unloaded at 40% RH and 25° C. (typical room conditions). A moisture sorption isotherm was performed as outlined below (2 scans giving 1 complete cycle). The standard isotherm was performed at 25° C. at 10% RH intervals over a 0-90% RH range. Data analysis was carried out using Microsoft Excel using DVS Analysis Suite v6.2 (or 6.1 or 6.0).

[3] = Aqueous solubility at 25° C.; details: water
[4] = Variable Temperature XRPD (physical stability on heating); details: upon heating
Experimental: X-Ray Powder Diffraction patterns were collected on a Bruker AXS C2 GADDS diffractometer using Cu Kα radiation (40 kV, 40 mA), automated XYZ stage, laser video microscope for auto-sample positioning and a HiStar 2-dimensional area detector. X-ray optics consists of a single Gobel multilayer mirror coupled with a pinhole collimator of 0.3 mm. A weekly performance check is carried out using a certified standard NIST 1976 Corundum (flat plate).
The beam divergence, i.e., the effective size of the X-ray beam on the sample, was approximately 4 mm. A 0-0 (theta-theta) continuous scan mode was employed with a sample—detector distance of 20 cm which gives an effective 20 (theta) range of 3.2°-29.7°. Typically, the sample would be exposed to the X-ray beam for 120 seconds. The software used for data collection was GADDS for XP/2000 4.1.43 and the data were analyzed and presented using Diffrac Plus EVA v15.0.0.0.
Samples run under non-ambient conditions were mounted on a silicon wafer with heat-conducting compound. The sample was then heated to the appropriate temperature at 20° C./min and subsequently held isothermally for 1 minute before data collection was initiated.

[5] = listed as Amorphous Form of Compound 1-Na

With `CC[C@H]1[C@@H](O)C2C3CC[C@H]([C@H](C)CCOS(=O)(=O)[O-])[C@@]3(C)CCC2[C@@]2(C)CC[C@@H](O)C[C@@H]12.[Na+]` (stereo partly drawn) [6α-ethyl-3α,7α,23-trihydroxy-24-nor-5β-cholan-23-sulphate sodium] the “12 days Storage @ 25° C./60% RH” value ([1]; 12 days, 25° C./60% RH) was “Unchanged”, the “12 days Storage @ 40° C./60% RH” value ([1]; 12 days, 40° C./60% RH) was “Unchanged” and the “GVS water uptake from 40% to 60% RH” value ([2]; 40% to 60% RH) was 2.6% w/w of water uptake from 40% to 60% RH. The “XRPD post GVS” value ([2]; after GVS) was “Unchanged”, the “GVS hysteresis (process reversible)” value ([2]; sorption/desorption) was ~1% w/w and the “GVS total water uptake” value ([2]; whole GVS cycle) was “Total of 8% w/w water uptake”.
For `CC[C@H]1[C@@H](O)C2C3CC[C@H]([C@H](C)CCOS(=O)(=O)[O-])[C@@]3(C)CCC2[C@@]2(C)CC[C@@H](O)C[C@@H]12.[Na+]` (stereo partly drawn) [Amorphous Compound 1-Na, 6α-ethyl-3α,7α,23-trihydroxy-24-nor-5β-cholan-23-sulphate sodium], the “Aqueous Solubility (25° C.)” value [3] was >200 mg/mL, the solubility [3] was > 200 mg/mL and the “Storage @ 25° C./60% RH” value ([1]; 25° C./60% RH) was “Unchanged for at least 1 month”. The “Storage @ 25° C./60% RH” value ([1]; 25° C./60% RH, listed as Amorphous Form of Compound 1-Na) was “physically stable for at least 1 month”, the “Storage @ 25° C./97% RH” value [1] was “Deliquesced in less than days” and the “Storage @ 25° C./97% RH” value [1, 5] was “deliquescent”. For the same compound, the “Storage @ 40° C./75% RH” value [1] was “Deliquesced in less than 3 days” and the “Storage @ 40° C./75% RH” value [1, 5] was “deliquescent”.
In the case of `CC[C@H]1[C@@H](O)C2C3CC[C@H]([C@H](C)CCOS(=O)(=O)[O-])[C@@]3(C)CCC2[C@@]2(C)CC[C@@H](O)C[C@@H]12.[Na+]` (stereo partly drawn) [Example 5, 6α-ethyl-3α,7α,23-trihydroxy-24-nor-5β-cholan-23-sulphate sodium], the “Storage @ 25° C./60% RH” value ([1]; 25° C./60% RH) is reported as “stable for at least one month; also recorded: Unchanged for at least 1 month”, the “Storage @ 25° C./97% RH” value [1] is reported as “deliquesced sample after 3 days; also recorded: Deliquesced in three days” and the “Storage @ 40° C./75% RH” value [1] is reported as “deliquesced sample after 3 days; also recorded: Deliquesced in three days”. The “GVS water uptake from 40% to 80% RH” value ([2]; 25° C., 40% to 80% RH) was 4 % w/w, the “GVS water uptake from 40% to 80% RH (equivalents of water)” value ([2]; 25° C., 40% to 80% RH) was 1.1 eq and the “GVS water uptake from 80% to 90% RH” value ([2]; 25° C., 80% to 90% RH) was 24 % w/w. For the same compound, the “GVS water uptake from 80% to 90% RH (equivalents of water)” value ([2]; 25° C., 80% to 90% RH) was 6.6 eq, the “GVS: state of sample during the analysis” value ([2]; 25° C., up to 90% RH) was “the sample deliquesced” and the “Hygroscopic profile from 40% to 80% RH” value ([2]; 40% to 80% RH) was “moderate hygroscopic profile”. For the same compound, the “GVS water uptake at RH greater than 80%” value ([2]; RH greater than 80%) was 24%, the “GVS water uptake at RH greater than 80% (equivalents of water)” value ([2]; RH greater than 80%) was 6.6 eq and the “Hygroscopic profile at RH greater than 80%” value ([2]; RH greater than 80%) was “very hygroscopic profile”. The VT-XRPD [4] was “unchanged upon heating”.
With `CC[C@H]1[C@@H](O)C2C3CC[C@H]([C@H](C)CCOS(=O)(=O)[O-])[C@@]3(C)CCC2[C@@]2(C)CC[C@@H](O)C[C@@H]12.[Na+]` (stereo partly drawn) [Form A of Compound 1-Na Formed via Suspension] [6α-ethyl-3α,7α,23-trihydroxy-24-nor-5β-cholan-23-sulphate sodium] the “Storage @ 25° C./60% RH” value ([1]; 25° C./60% RH) was “successful for at least 1 month; also recorded: Unchanged for at least 1 month”, the “Storage @ 25° C./97% RH” value [1] was “Deliquesced in less than 3 days” and the “Storage @ 40° C./75% RH” value [1] was “Deliquesced in less than 3 days”.
